# Laboratory results: PMC10278063 (ACS Chemical Biology, 2023)
# Values joined by “and” are separate entries in the source; they are usually repeats but may differ in a detail not shown here. Equal values may be shown once. No end group written: not given here. *: point of attachment. ClAc = O=C(CCl)*
# System: PSMD2
# Type: binding, human
Substance,ELISA S/N,PSMD2 binding compared with MC3
ClAc-FRRNVNWWRLYC (also: sidechain bridge or staple (positions not given here)) [hit 5],> 30,equivalent or better binding
ClAc-FSALRHIAIFRYC (also: sidechain bridge or staple (positions not given here)) [hit 2],> 30,equivalent or better binding
ClAc-FSRNAGFWARYC (also: sidechain bridge or staple (positions not given here)) [hit 3],49.0 and > 30,equivalent or better binding
